Legend:
Settings in all cases: 48 h
[1] = system: NOMO1; experiment: cell viability relative to DMSO control; higher = less cytotoxic
Procedure, shortened: (§1)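 NOMO1, SEM and P12-Ichikawa leukemia cells spent at least four passages adapting to each medium before use. They were seeded at 500 cells/well (NOMO1, SEM) or 1000 cells/well (P12-Ichikawa) in 5 μl in 1536-well plates and pin-dosed with library compounds in DMSO at 11 threefold steps from 47 μM down to 0.79 nM. After 48 h at 37°C, CellTiter-Glo One luminescence was read. Viability is reported as a percentage of the DMSO wells on each plate, with cell-free wells as background.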

[2] = system: P12-Ichikawa; experiment: as above
Procedure, shortened: as §1

[3] = system: SEM cells; experiment: as above
Procedure, shortened: as §1

[4] = system: NOMO1; experiment: AUC of viability dose-response curve (% viability x log10 dose units); higher = less sensitive
Procedure, shortened: (§2)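 Medium-adapted leukemia cells in 1536-well plates, at 500 or 1000 cells/well, were incubated for 48 h at 37°C with library compounds in DMSO at 11 threefold doses from 47 μM to 0.79 nM. CellTiter-Glo One luminescence normalised per plate to DMSO and cell-free wells was fitted with a four-parameter log-logistic model over log10 doses. Area under the curve was integrated from this fit by trapezoidal rule, with curves beyond full viability scaled and failed quality-control curves removed.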

[5] = system: P12-Ichikawa; experiment: as above
Procedure, shortened: as §2

[6] = system: SEM cells; experiment: as above
Procedure, shortened: as §2

[7] = HPLM + 10% dialyzed FBS, 0.000781 µM
[8] = HPLM + 10% dialyzed FBS, 0.00234 µM
[9] = HPLM + 10% dialyzed FBS, 0.00702 µM
[10] = HPLM + 10% dialyzed FBS, 0.0211 µM
[11] = HPLM + 10% dialyzed FBS, 0.0632 µM
[12] = HPLM + 10% dialyzed FBS, 0.19 µM
[13] = HPLM + 10% dialyzed FBS, 0.569 µM
[14] = HPLM + 10% dialyzed FBS, 1.71 µM
[15] = HPLM + 10% dialyzed FBS, 5.12 µM
[16] = HPLM + 10% dialyzed FBS, 15.4 µM
[17] = HPLM + 10% dialyzed FBS, 46.1 µM
[18] = RPMI 5 mM glucose + 10% FBS, 0.000781 µM
[19] = RPMI 5 mM glucose + 10% FBS, 0.00234 µM
[20] = RPMI 5 mM glucose + 10% FBS, 0.00702 µM
[21] = RPMI 5 mM glucose + 10% FBS, 0.0211 µM
[22] = RPMI 5 mM glucose + 10% FBS, 0.0632 µM
[23] = RPMI 5 mM glucose + 10% FBS, 0.19 µM
[24] = RPMI 5 mM glucose + 10% FBS, 0.569 µM
[25] = RPMI 5 mM glucose + 10% FBS, 1.71 µM
[26] = RPMI 5 mM glucose + 10% FBS, 5.12 µM
[27] = RPMI 5 mM glucose + 10% FBS, 15.4 µM
[28] = RPMI 5 mM glucose + 10% FBS, 46.1 µM
[29] = RPMI 5 mM glucose + 10% dialyzed FBS, 0.000781 µM
[30] = RPMI 5 mM glucose + 10% dialyzed FBS, 0.00234 µM
[31] = RPMI 5 mM glucose + 10% dialyzed FBS, 0.00702 µM
[32] = RPMI 5 mM glucose + 10% dialyzed FBS, 0.0211 µM
[33] = RPMI 5 mM glucose + 10% dialyzed FBS, 0.0632 µM
[34] = RPMI 5 mM glucose + 10% dialyzed FBS, 0.19 µM
[35] = RPMI 5 mM glucose + 10% dialyzed FBS, 0.569 µM
[36] = RPMI 5 mM glucose + 10% dialyzed FBS, 1.71 µM
[37] = RPMI 5 mM glucose + 10% dialyzed FBS, 5.12 µM
[38] = RPMI 5 mM glucose + 10% dialyzed FBS, 15.4 µM
[39] = RPMI 5 mM glucose + 10% dialyzed FBS, 46.1 µM
[40] = RPMI 5 mM glucose + 10% dialyzed FBS

SMILES: Cc1cc2c(C(C)C)c(O)c(O)c(C=O)c2c(O)c1-c1c(C)cc2c(C(C)C)c(O)c(O)c(C=O)c2c1O
- cell viability [1, 7]: 122%
- cell viability [1, 8]: 123%
- cell viability [1, 9]: 135%
- cell viability [1, 10]: 137%
- cell viability [1, 11]: 115%
- cell viability [1, 12]: 107%
- cell viability [1, 13]: 116%
- cell viability [1, 14]: 105%
- cell viability [1, 15]: 105%
- cell viability [1, 16]: 100%
- cell viability [1, 17]: 50.8%
- cell viability [1, 18]: 100%
- cell viability [1, 19]: 116%
- cell viability [1, 20]: 104%
- cell viability [1, 21]: 109%
- cell viability [1, 22]: 107%
- cell viability [1, 23]: 106%
- cell viability [1, 24]: 115%
- cell viability [1, 25]: 97.1%
- cell viability [1, 26]: 98.5%
- cell viability [1, 27]: 92.8%
- cell viability [1, 28]: 12%
- cell viability [1, 29]: 115%
- cell viability [1, 30]: 115%
- cell viability [1, 31]: 114%
- cell viability [1, 32]: 121%
- cell viability [1, 33]: 114%
- cell viability [1, 34]: 102%
- cell viability [1, 35]: 103%
- cell viability [1, 36]: 106%
- cell viability [1, 37]: 110%
- cell viability [1, 38]: 94.6%
- cell viability [1, 39]: 27.5%
- cell viability [2, 7]: 113%
- cell viability [2, 8]: 111%
- cell viability [2, 9]: 111%
- cell viability [2, 10]: 113%
- cell viability [2, 11]: 108%
- cell viability [2, 12]: 99.6%
- cell viability [2, 13]: 108%
- cell viability [2, 14]: 104%
- cell viability [2, 15]: 102%
- cell viability [2, 16]: 98.1%
- cell viability [2, 17]: 17.1%
- cell viability [2, 18]: 117%
- cell viability [2, 19]: 125%
- cell viability [2, 20]: 127%
- cell viability [2, 21]: 121%
- cell viability [2, 22]: 119%
- cell viability [2, 23]: 106%
- cell viability [2, 24]: 117%
- cell viability [2, 25]: 101%
- cell viability [2, 26]: 112%
- cell viability [2, 27]: 106%
- cell viability [2, 28]: 10.6%
- cell viability [2, 29]: 116%
- cell viability [2, 30]: 124%
- cell viability [2, 31]: 118%
- cell viability [2, 32]: 116%
- cell viability [2, 33]: 111%
- cell viability [2, 34]: 109%
- cell viability [2, 35]: 110%
- cell viability [2, 36]: 104%
- cell viability [2, 37]: 110%
- cell viability [2, 38]: 100%
- cell viability [2, 39]: 22%
- cell viability [3, 7]: 107%
- cell viability [3, 8]: 114%
- cell viability [3, 9]: 105%
- cell viability [3, 10]: 113%
- cell viability [3, 11]: 112%
- cell viability [3, 12]: 101%
- cell viability [3, 13]: 116%
- cell viability [3, 14]: 101%
- cell viability [3, 15]: 99.2%
- cell viability [3, 16]: 110%
- cell viability [3, 17]: 27.6%
- cell viability [3, 29]: 106%
- cell viability [3, 30]: 123%
- cell viability [3, 31]: 120%
- cell viability [3, 32]: 109%
- cell viability [3, 33]: 112%
- cell viability [3, 34]: 113%
- cell viability [3, 35]: 117%
- cell viability [3, 36]: 103%
- cell viability [3, 37]: 106%
- cell viability [3, 38]: 90%
- cell viability [3, 39]: 6.54%
- AUC of viability dose-response curve ([4]; HPLM + 10% dialyzed FBS): 445
- AUC of viability dose-response curve ([4]; RPMI 5 mM glucose + 10% FBS): 449
- AUC of viability dose-response curve [4, 40]: 452
- AUC of viability dose-response curve ([5]; HPLM + 10% dialyzed FBS): 453
- AUC of viability dose-response curve ([5]; RPMI 5 mM glucose + 10% FBS): 451
- AUC of viability dose-response curve [5, 40]: 452
- AUC of viability dose-response curve ([6]; HPLM + 10% dialyzed FBS): 459
- AUC of viability dose-response curve ([6]; RPMI 5 mM glucose + 10% FBS): 447
- AUC of viability dose-response curve [6, 40]: 444
